Data taken from patent US10487093B2, “Heterocyclic compounds, in particular 2-oxo-4,4,5,5,6,6,7,7-octahydrobenzoxazole derivatives, and their use as antibacterial compounds” (priority 2016, dated 2019).
Where two headings read alike, the source gives them in different places.

Columns and labels:
Format in all cases: cell-based
[1] = test system: Acinetobacter baumannii NCTC 13420; experiment: MIC, broth microdilution (CLSI) versus planktonic bacteria; settings: NCTC13420; Acinetobacter baumannii NCTC 13420; 16-20 h; mode of three independent experiments; read-out: MIC, Ab NCTC 13420
[2] = test system: Enterobacter cloacae NCTC 13406; experiment: as above; settings: NCTC13406; Enterobacter cloacae NCTC 13406; 16-20 h; mode of three independent experiments; read-out: MIC, Ecl NCTC 13406
[3] = test system: Clostridium difficile ATCC 700057; experiment: MIC against anaerobes, agar dilution (CLSI), reference strain; settings: Clostridioides difficile, ATCC700057, 48 h, read-out: MIC, C. difficile ATCC 700057
[4] = test system: Bacteroides fragilis ATCC 25285; experiment: as above; settings: ATCC25285, agar dilution, Brucella blood agar, 35° C., 48 h, anaerobic conditions, read-out: MIC, B. fragilis ATCC 25285
[5] = test system: Bacteroides thetaiotaomicron ATCC 29741; experiment: microbe, parasite or virus in culture; settings: ATCC29741, agar dilution, Brucella blood agar, 35° C., 48 h, anaerobic conditions, read-out: MIC, B. thetaiotaomicron ATCC
[6] = test system: strains of Clostridium perfringens; experiment: microbe, parasite or virus in culture
[7] = test system: strains of Finegoldia magna; experiment: MIC against anaerobes, agar dilution (CLSI), clinical isolates; settings: Finegoldia magna, read-out: MIC
[8] = test system: strains of Parvimonas micra; experiment: as above
[9] = test system: strains of Peptoniphilus harei; experiment: as above; settings: Peptoniphilus harei, read-out: MIC
[10] = test system: strains of Peptostreptococcus anaerobius; experiment: as above
[11] = test system: strains of Propionibacterium acnes; experiment: as above; settings: Cutibacterium acnes
[12] = test system: strains of Bacteroides fragilis; experiment: as above
[13] = test system: strains of Bacteroides thetaiotaomicron; experiment: microbe, parasite or virus in culture
[14] = test system: strains of Prevotella bivia; experiment: MIC against anaerobes, agar dilution (CLSI), clinical isolates
[15] = test system: strains of Prevotella melaninogenica; experiment: as above

Measured: MIC

COc1ccc2ncc(=O)n(CCN[C@@H]3CC[C@@H]4[C@@H](C3)OC(=O)N4c3ccc4c(n3)NC(=O)CO4)c2c1 [Compound 21, 1-(2-{[(3aR,6R,7aR)-2-oxo-3-{3-oxo-2H,3H,4H-pyrido[3,2-b][1,4]oxazin-6-yl}-octahydro-1,3-benzoxazol-6-yl]amino}ethyl)-7-methoxy-1,2-dihydroquinoxalin-2-one]
< 1 µg/mL: [1] | [2] | [3] | [4] | [5] | [6]; Clostridium perfringens strain 1 | [6]; Clostridium perfringens strain 2 | [6]; Clostridium perfringens strain 3 | [6]; Clostridium perfringens strain 4 | [6]; Clostridium perfringens strain 5 | [6]; Clostridium perfringens strain 6 | [6]; Clostridium perfringens strain 7 | [6]; Clostridium perfringens strain 8 | [6]; Clostridium perfringens strain 9 | [6]; Clostridium perfringens strain 10 | [6]; Clostridium perfringens strain 11 | [7]; Finegoldia magna strain 1 | [7]; Finegoldia magna strain 2 | [7]; Finegoldia magna strain 3 | [7]; Finegoldia magna strain 4 | [7]; Finegoldia magna strain 5 | [7]; Finegoldia magna strain 6 | [7]; Finegoldia magna strain 7 | [7]; Finegoldia magna strain 8 | [7]; Finegoldia magna strain 9 | [7]; Finegoldia magna strain 10 | [7]; Finegoldia magna strain 11 | [7]; Finegoldia magna strain 12 | [8]; Parvimonas micra strain 1 | [8]; Parvimonas micra strain 2 | [8]; Parvimonas micra strain 3 | [8]; Parvimonas micra strain 5 | [8]; Parvimonas micra strain 6 | [8]; Parvimonas micra strain 7 | [8]; Parvimonas micra strain 8 | [8]; Parvimonas micra strain 9 | [8]; Parvimonas micra strain 10 | [8]; Parvimonas micra strain 11 | [8]; Parvimonas micra strain 12 | [9]; Peptoniphilus harei strain 1 | [9]; Peptoniphilus harei strain 2 | [9]; Peptoniphilus harei strain 3 | [9]; Peptoniphilus harei strain 4 | [9]; Peptoniphilus harei strain 5 | [9]; Peptoniphilus harei strain 6 | [9]; Peptoniphilus harei strain 7 | [9]; Peptoniphilus harei strain 8 | [9]; Peptoniphilus harei strain 9 | [9]; Peptoniphilus harei strain 10 | [9]; Peptoniphilus harei strain 11 | [9]; Peptoniphilus harei strain 12 | [10]; Peptostreptococcus anaerobius strain 1 | [10]; Peptostreptococcus anaerobius strain 2 | [10]; Peptostreptococcus anaerobius strain 3 | [10]; Peptostreptococcus anaerobius strain 4 | [10]; Peptostreptococcus anaerobius strain 5 | [10]; Peptostreptococcus anaerobius strain 6 | [10]; Peptostreptococcus anaerobius strain 7 | [10]; Peptostreptococcus anaerobius strain 8 | [10]; Peptostreptococcus anaerobius strain 9 | [10]; Peptostreptococcus anaerobius strain 10 | [11]; Propionibacterium acnes strain 1 | [11]; Propionibacterium acnes strain 2 | [11]; Propionibacterium acnes strain 3 | [11]; Propionibacterium acnes strain 4 | [11]; Propionibacterium acnes strain 5 | [11]; Propionibacterium acnes strain 6 | [11]; Propionibacterium acnes strain 7 | [11]; Propionibacterium acnes strain 8 | [11]; Propionibacterium acnes strain 9 | [11]; Propionibacterium acnes strain 10 | [11]; Propionibacterium acnes strain 11 | [11]; Propionibacterium acnes strain 12 | [12]; Bacteroides fragilis strain 2 | [12]; Bacteroides fragilis strain 3 | [12]; Bacteroides fragilis strain 4 | [12]; Bacteroides fragilis strain 5 | [12]; Bacteroides fragilis strain 6 | [12]; Bacteroides fragilis strain 7 | [12]; Bacteroides fragilis strain 8 | [12]; Bacteroides fragilis strain 9 | [12]; Bacteroides fragilis strain 10 | [12]; Bacteroides fragilis strain 11 | [12]; Bacteroides fragilis strain 12 | [13]; Bacteroides thetaiotaomicron strain 1, read-out: MIC | [13]; Bacteroides thetaiotaomicron strain 2, read-out: MIC | [13]; Bacteroides thetaiotaomicron strain 3, read-out: MIC | [13]; Bacteroides thetaiotaomicron strain 4, read-out: MIC | [13]; Bacteroides thetaiotaomicron strain 5, read-out: MIC | [13]; Bacteroides thetaiotaomicron strain 6, read-out: MIC | [13]; Bacteroides thetaiotaomicron strain 7, read-out: MIC | [13]; Bacteroides thetaiotaomicron strain 8, read-out: MIC | [13]; Bacteroides thetaiotaomicron strain 9, read-out: MIC | [13]; Bacteroides thetaiotaomicron strain 10, read-out: MIC | [14]; Prevotella bivia strain 1 | [14]; Prevotella bivia strain 2 | [14]; Prevotella bivia strain 3 | [14]; Prevotella bivia strain 4 | [14]; Prevotella bivia strain 5 | [14]; Prevotella bivia strain 6 | [14]; Prevotella bivia strain 7 | [14]; Prevotella bivia strain 8 | [14]; Prevotella bivia strain 9 | [14]; Prevotella bivia strain 10 | [15]; Prevotella melaninogenica strain 1 | [15]; Prevotella melaninogenica strain 2 | [15]; Prevotella melaninogenica strain 3 | [15]; Prevotella melaninogenica strain 4 | [15]; Prevotella melaninogenica strain 5 | [15]; Prevotella melaninogenica strain 6 | [15]; Prevotella melaninogenica strain 7 | [15]; Prevotella melaninogenica strain 8 | [15]; Prevotella melaninogenica strain 9 | [15]; Prevotella melaninogenica strain 10 | [15]; Prevotella melaninogenica strain 11
1 to 4 µg/mL: [8]; Parvimonas micra strain 4 | [12]; Bacteroides fragilis strain 1 | [13]; Bacteroides thetaiotaomicron strain 11, read-out: MIC
